Experimental data from patent publication US6667311B2, “Nitrogen substituted biaryl purine derivatives as potent antiproliferative agents” (Albany Molecular Research, Inc., priority 2001, dated 2003).

Legend:
Assay type in all cases: cell-based, human
[1] = test system: BT-549; experiment: NCI growth inhibition, BT-549; conditions: BT-549 (Breast)
[2] = test system: HS 578T; experiment: NCI growth inhibition, HS 578T; conditions: HS 578T (Breast)
[3] = test system: MDA-MB-435; experiment: NCI growth inhibition, MDA-MB-435; conditions: MDA-MB-435 (Breast)
[4] = test system: MDA-N; experiment: NCI growth inhibition, MDA-N; conditions: MDA-N (Breast)
[5] = test system: NCI/ADR-RES; experiment: NCI growth inhibition, NCI/ADR-RES; conditions: NCI/ADR-RES (Breast)
[6] = test system: SF-268; experiment: NCI growth inhibition, SF-268; conditions: SF-268 (CNS)
[7] = test system: SF-295; experiment: NCI growth inhibition, SF-295; conditions: SF-295 (CNS)
[8] = test system: SF-539; experiment: NCI growth inhibition, SF-539; conditions: SF-539 (CNS)
[9] = test system: SNB-19; experiment: NCI growth inhibition, SNB-19; conditions: SNB-19 (CNS)
[10] = test system: SNB-75; experiment: NCI growth inhibition, SNB-75; conditions: SNB-75 (CNS)
[11] = test system: COLO 205; experiment: NCI growth inhibition, COLO 205; conditions: COLO 205 (Colon)
[12] = test system: HCT-116; experiment: NCI growth inhibition, HCT-116; conditions: HCT-116 (Colon)
[13] = test system: HCT-15; experiment: NCI growth inhibition, HCT-15; conditions: HCT-15 (Colon)
[14] = test system: HT29; experiment: NCI growth inhibition, HT29; conditions: HT29 (Colon)
[15] = test system: KM12; experiment: NCI growth inhibition, KM12; conditions: KM12 (Colon)
[16] = test system: K-562; experiment: NCI growth inhibition, K-562; conditions: K-562 (Leukemia)
[17] = test system: MOLT-4; experiment: NCI growth inhibition, MOLT-4; conditions: MOLT-4 (Leukemia)
[18] = test system: RPMI-8226; experiment: NCI growth inhibition, RPMI-8226; conditions: RPMI-8226 (Leukemia)
[19] = test system: SR; experiment: NCI growth inhibition, SR; conditions: SR (Leukemia)
[20] = test system: LOX IMVI; experiment: NCI growth inhibition, LOX IMVI; conditions: LOX IMVI (Melanoma)
[21] = test system: M14; experiment: NCI growth inhibition, M14; conditions: M14 (Melanoma)
[22] = test system: MALME-3M; experiment: NCI growth inhibition, MALME-3M; conditions: MALME-3M (Melanoma)
[23] = test system: SK-MEL-2; experiment: NCI growth inhibition, SK-MEL-2; conditions: SK-MEL-2 (Melanoma)
[24] = test system: SK-MEL-28; experiment: NCI growth inhibition, SK-MEL-28; conditions: SK-MEL-28 (Melanoma)
[25] = test system: UACC-257; experiment: NCI growth inhibition, UACC-257; conditions: UACC-257 (Melanoma)
[26] = test system: UACC-62; experiment: NCI growth inhibition, UACC-62; conditions: UACC-62 (Melanoma)
[27] = test system: A549/ATCC; experiment: NCI growth inhibition, A549/ATCC; conditions: A549/ATCC (Non-Small Cell Lung)
[28] = test system: EKVX; experiment: NCI growth inhibition, EKVX; conditions: EKVX (Non-Small Cell Lung)
[29] = test system: HOP-92; experiment: NCI growth inhibition, HOP-92; conditions: HOP-92 (Non-Small Cell Lung)
[30] = test system: NCI-H23; experiment: NCI growth inhibition, NCI-H23; conditions: NCI-H23 (Non-Small Cell Lung)
[31] = test system: NCI-H322M; experiment: NCI growth inhibition, NCI-H322M; conditions: NCI-H322M (Non-Small Cell Lung)
[32] = test system: NCI-H460; experiment: NCI growth inhibition, NCI-H460; conditions: NCI-H460 (Non-Small Cell Lung)
[33] = test system: NCI-H522; experiment: NCI growth inhibition, NCI-H522; conditions: NCI-H522 (Non-Small Cell Lung)
[34] = test system: OVCAR-3; experiment: NCI growth inhibition, OVCAR-3; conditions: OVCAR-3 (Ovarian)
[35] = test system: OVCAR-4; experiment: NCI growth inhibition, OVCAR-4; conditions: OVCAR-4 (Ovarian)
[36] = test system: OVCAR-5; experiment: NCI growth inhibition, OVCAR-5; conditions: OVCAR-5 (Ovarian)
[37] = test system: 786-0; experiment: NCI growth inhibition, 786-0; conditions: 786-0 (Renal)
[38] = test system: A498; experiment: NCI growth inhibition, A498; conditions: A498 (Renal)
[39] = test system: ACHN; experiment: NCI growth inhibition, ACHN; conditions: ACHN (Renal)
[40] = test system: CAKI-1; experiment: NCI growth inhibition, CAKI-1; conditions: CAKI-1 (Renal)
[41] = test system: RXF 393; experiment: NCI growth inhibition, RXF 393; conditions: RXF 393 (Renal)
[42] = test system: SN12C; experiment: NCI growth inhibition, SN12C; conditions: SN12C (Renal)
[43] = test system: TK-10; experiment: NCI growth inhibition, TK-10; conditions: TK-10 (Renal)
[44] = test system: UO-31; experiment: NCI growth inhibition, UO-31; conditions: UO-31 (Renal)

Question: Which GI50 [1] does the source give for CC(=O)N[C@H]1CC[C@H](Nc2nc(NCc3ccc(-c4ccccc4)nc3)c3ncn(C(C)C)c3n2)CC1 [Compound 87] here?
Answer: 20 nM

Question: What about the GI50 [2] of the same molecule?
Answer: < 10 nM

Question: What about the GI50 [3] of the same molecule?
Answer: < 10 nM

Question: And the GI50 [4]?
Answer: 14 nM

Question: And the GI50 [5]?
Answer: 280 nM

Question: What about the GI50 [6] of the same molecule?
Answer: < 10 nM

Question: And the GI50 [7]?
Answer: 47 nM

Question: And the GI50 [8]?
Answer: 81 nM

Question: What about the GI50 [9] of the same molecule?
Answer: 38 nM

Question: And the GI50 [10]?
Answer: 12 nM

Question: And the GI50 [11]?
Answer: < 10 nM

Question: And the GI50 [12]?
Answer: 37 nM

Question: What about the GI50 [13] of the same molecule?
Answer: 66 nM

Question: What about the GI50 [14] of the same molecule?
Answer: < 10 nM

Question: What about the GI50 [15] of the same molecule?
Answer: < 10 nM

Question: What about the GI50 [16] of the same molecule?
Answer: 24 nM

Question: And the GI50 [17]?
Answer: 20 nM

Question: What about the GI50 [18] of the same molecule?
Answer: < 10 nM

Question: What about the GI50 [19] of the same molecule?
Answer: 32 nM

Question: What about the GI50 [20] of the same molecule?
Answer: 27 nM

Question: And the GI50 [21]?
Answer: < 10 nM

Question: What about the GI50 [22] of the same molecule?
Answer: 24 nM

Question: What about the GI50 [23] of the same molecule?
Answer: 56 nM

Question: What about the GI50 [24] of the same molecule?
Answer: < 10 nM

Question: What about the GI50 [25] of the same molecule?
Answer: 17 nM

Question: And the GI50 [26]?
Answer: 45 nM

Question: What about the GI50 [27] of the same molecule?
Answer: < 10 nM

Question: What about the GI50 [28] of the same molecule?
Answer: 81 nM

Question: And the GI50 [29]?
Answer: 88 nM

Question: What about the GI50 [30] of the same molecule?
Answer: 22 nM

Question: And the GI50 [31]?
Answer: 21 nM

Question: And the GI50 [32]?
Answer: 220 nM

Question: What about the GI50 [33] of the same molecule?
Answer: < 10 nM

Question: And the GI50 [34]?
Answer: 50 nM

Question: And the GI50 [35]?
Answer: 48 nM

Question: And the GI50 [36]?
Answer: 51 nM

Question: And the GI50 [37]?
Answer: 47 nM

Question: And the GI50 [38]?
Answer: 100 nM

Question: What about the GI50 [39] of the same molecule?
Answer: 190 nM

Question: And the GI50 [40]?
Answer: 64 nM

Question: And the GI50 [41]?
Answer: 11 nM

Question: And the GI50 [42]?
Answer: < 10 nM

Question: What about the GI50 [43] of the same molecule?
Answer: 29 nM

Question: What about the GI50 [44] of the same molecule?
Answer: 16 nM
